Drawing on ChEMBL document CHEMBL5053516, “Cinchona Alkaloid-Inspired Urea-Containing Autophagy Inhibitor Shows Single-Agent Anticancer Efficacy” (J Med Chem, 2021), this text covers IC50, Activity and inhibition for twelve compounds.

As a reminder, the IC50 is the concentration that inhibits the measured activity by half.

The test system of test [1] is HepG2. Description: Cytotoxicity against human HepG2 cells assessed as cell viability by MTT assay. The test is classed as functional, cell-based. On the technique in general: Formazan colour is commonly taken as a measure of viable cells.
Test [2] is described as follows: Cytotoxicity against mouse FL83B cells assessed as cell viability by MTT assay. Format: cell-based.
Test [3] can be described thus: Cytotoxicity against human JHH7 cells assessed as cell viability by MTT assay. Format: functional, cell-based.
In test [4] the test system is Hep 3B2. Description: Cytotoxicity against human Hep3B cells assessed as cell viability by MTT assay. Format: functional, cell-based.
Test [5] can be described thus: Cytotoxicity against mouse HCA1 cells assessed as cell viability by MTT assay. The test is classed as functional, cell-based.
Test [6] concerns Mahlavu. Nature of the test: Cytotoxicity against human Mahlavu cells assessed as cell viability by MTT assay. Format: functional, cell-based.
The subject of test [7] is HCA1. Nature of the test: Induction of apoptosis in mouse HCA1 cells assessed as increase in cleaved caspase 3 measured after 2 hrs by Western blot analysis. Format: functional, cell-based. For orientation: In western blotting, separated proteins are transferred to a membrane and probed.
For test [8], the system named is Hep 3B2. Description: Effect on LC3-I expression in human Hep3B cells at 0.5 uM by Western blot analysis. The test is classed as functional, cell-based.
In test [9] the test system is Mahlavu. Nature of the test: Inhibition of autophagy in human Mahlavu cells assessed as increase in LC3-II measured at 0.1 to 0.5 uM by Western blot analysis. Format: functional, cell-based. As to conditions: dose 0.1-0.5 µM, time 2-6 hrs, TDE = time-dependent effect.
Test [10] deals with HCA1. Description: Inhibition of autophagy in mouse HCA1 cells assessed as increase in p62 expression measured at 0.1 to 0.5 uM by Western blot analysis. The test is classed as functional, cell-based. Conditions: dose 0.1-0.5 µM, time 2-6 hrs, TDE = time-dependent effect.
Test [11] deals with Mahlavu. Nature of the test: Downregulation of Akt expression in human Mahlavu cells by Western blot analysis. Format: functional, cell-based.
Test [12] has as its system HCA1. Nature of the test: Induction of apoptosis in mouse HCA1 cells after 16 hrs using annexin V/PI staining assay. Format: functional, cell-based.
The test system of test [13] is Mahlavu. Nature of the test: Induction of apoptosis in human Mahlavu cells assessed as increase in cleaved caspase 3 measured after 2 hrs by Western blot analysis. The test is classed as functional, cell-based.
Test [14] concerns Hep 3B2. Description: Inhibition of autophagy in human Hep3B cells assessed as increase in LC3-II measured at 0.1 to 0.5 uM by Western blot analysis. As to conditions: dose 0.1-0.5 µM, time 2-6 hrs, TDE = time-dependent effect. The test is classed as functional, cell-based.
For test [15], the system named is Mahlavu. Description: Effect on LC3-I expression in human Mahlavu cells at 0.5 uM by Western blot analysis. The test is classed as functional, cell-based.
Test [16] concerns Mahlavu. Nature of the test: Reduction in p53 expression in human Mahlavu cells by Western blot analysis. The test is classed as functional, cell-based.
Test [17] has as its system Hep 3B2. Nature of the test: Inhibition of autophagy in human Hep3B cells assessed as increase in LC3-II measured after 2 to 6 hrs by Western blot analysis. The test is classed as functional, cell-based. As to conditions: time 2-6 hrs.
Test [18] concerns HCA1. Nature of the test: Effect on LC3-I expression in mouse HCA1 cells at 0.5 uM by Western blot analysis. Format: functional, cell-based.
The test system of test [19] is Mahlavu. Description: Induction of apoptosis in human Mahlavu cells after 16 hrs using annexin V/PI staining assay. Format: functional, cell-based.
Test [20] deals with Mahlavu. Nature of the test: Inhibition of autophagy in human Mahlavu cells assessed as increase in p62 expression measured at 0.1 to 0.5 uM by Western blot analysis. Format: functional, cell-based. As to conditions: dose 0.1-0.5 µM, time 2-6 hrs, TDE = time-dependent effect.
The subject of test [21] is HCA1. Description: Downregulation of Akt expression in mouse HCA1 cells by Western blot analysis. Format: functional, cell-based.
Test [22] has as its system HCA1. Nature of the test: Inhibition of autophagy in mouse HCA1 cells assessed as increase in LC3-II measured after 2 to 6 hrs by Western blot analysis. The test is classed as functional, cell-based. As to conditions: time 2-6 hrs.
Test [23] has as its system Mahlavu. Description: Inhibition of autophagy in human Mahlavu cells assessed as increase in p62 expression measured after 2 to 6 hrs by Western blot analysis. Conditions: time 2-6 hrs. Format: functional, cell-based.
Test [24] has as its system Hep 3B2. Nature of the test: Inhibition of autophagy in human Hep3B cells assessed as increase in p62 expression measured after 2 to 6 hrs by Western blot analysis. The test is classed as functional, cell-based. Conditions: time 2-6 hrs.
Test [25] concerns Mahlavu. Nature of the test: Inhibition of autophagy in human Mahlavu cells assessed as increase in LC3-II measured after 2 to 6 hrs by Western blot analysis. Format: functional, cell-based. As to conditions: time 2-6 hrs.
Test [26] has as its system Hep 3B2. Description: Inhibition of autophagy in human Hep3B cells assessed as increase in p62 expression measured at 0.1 to 0.5 uM by Western blot analysis. Conditions: dose 0.1-0.5 µM, time 2-6 hrs, TDE = time-dependent effect. Format: functional, cell-based.
Test [27] addresses Serine/threonine-protein kinase AKT (Homo sapiens) (UniProt P31751+Q9Y243+P31749). Description: Inhibition of Akt phosphorylation in human Hep3B cells by Western blot analysis. Format: cell-based.
For test [28], the system named is HCA1. Description: Inhibition of autophagosome-lysosome fusion in mouse HCA1 cells assessed as number of LC3 puncta at 1 uM for 2 hrs by immunofluorescence assay. The test is classed as functional, cell-based.
Test [29] deals with HCA1. Nature of the test: Inhibition of autophagy in mouse HCA1 cells assessed as increase in p62 expression measured after 2 to 6 hrs by Western blot analysis. Format: functional, cell-based. Conditions: time 2-6 hrs.
Test [30] relates to Mahlavu. Nature of the test: Inhibition of autophagosome-lysosome fusion in human Mahlavu cells assessed as number of LC3 puncta at 1 uM for 2 hrs by immunofluorescence assay. Format: functional, cell-based.
Test [31] has as its system Mahlavu. Description: Reduction in Bcl-xL expression in human Mahlavu cells by Western blot analysis. The test is classed as functional, cell-based.
Test [32] relates to HCA1. Nature of the test: Inhibition of autophagy in mouse HCA1 cells assessed as increase in LC3-II measured at 0.1 to 0.5 uM by Western blot analysis. Format: functional, cell-based. As to conditions: dose 0.1-0.5 µM, time 2-6 hrs, TDE = time-dependent effect.
For test [33], the system named is HCA1. Description: Reduction in Bcl-xL expression in mouse HCA1 cells by Western blot analysis. Format: functional, cell-based.

Activity calls are given as the source filed them. The rule behind the calls is not given here. Bounds are passed on as bounds.

Sequence of Serine/threonine-protein kinase AKT (Homo sapiens) (P31749 whole entry, looked up, the tested form may be a part): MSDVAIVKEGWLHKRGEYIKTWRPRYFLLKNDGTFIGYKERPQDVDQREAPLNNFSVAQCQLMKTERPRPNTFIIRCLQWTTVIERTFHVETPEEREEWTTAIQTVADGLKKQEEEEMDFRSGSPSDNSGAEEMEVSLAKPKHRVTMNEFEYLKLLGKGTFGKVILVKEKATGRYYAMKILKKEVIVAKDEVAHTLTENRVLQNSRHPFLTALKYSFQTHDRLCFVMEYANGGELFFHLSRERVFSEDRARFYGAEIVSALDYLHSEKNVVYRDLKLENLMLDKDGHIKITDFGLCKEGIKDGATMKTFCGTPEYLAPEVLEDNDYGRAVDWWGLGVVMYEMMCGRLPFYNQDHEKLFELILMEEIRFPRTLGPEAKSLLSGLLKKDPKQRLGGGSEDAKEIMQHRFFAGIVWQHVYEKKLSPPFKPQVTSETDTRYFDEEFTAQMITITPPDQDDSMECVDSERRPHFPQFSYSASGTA
Sequence of Serine/threonine-protein kinase AKT (Homo sapiens) (P31751 whole entry, looked up, the tested form may be a part): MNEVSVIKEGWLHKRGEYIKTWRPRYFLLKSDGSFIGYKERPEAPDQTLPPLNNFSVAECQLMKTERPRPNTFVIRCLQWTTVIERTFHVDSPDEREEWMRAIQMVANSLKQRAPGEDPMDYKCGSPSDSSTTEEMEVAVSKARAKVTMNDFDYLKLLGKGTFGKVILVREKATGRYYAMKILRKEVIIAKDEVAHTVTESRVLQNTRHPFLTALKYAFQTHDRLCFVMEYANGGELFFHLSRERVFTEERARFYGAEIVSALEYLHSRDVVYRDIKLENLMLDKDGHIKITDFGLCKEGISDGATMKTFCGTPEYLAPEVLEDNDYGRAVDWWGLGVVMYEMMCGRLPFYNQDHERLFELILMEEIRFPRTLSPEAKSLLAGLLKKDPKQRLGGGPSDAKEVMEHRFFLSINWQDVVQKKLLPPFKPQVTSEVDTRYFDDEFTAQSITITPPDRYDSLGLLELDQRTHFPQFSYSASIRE
Sequence of Serine/threonine-protein kinase AKT (Homo sapiens) (Q9Y243 whole entry, looked up, the tested form may be a part): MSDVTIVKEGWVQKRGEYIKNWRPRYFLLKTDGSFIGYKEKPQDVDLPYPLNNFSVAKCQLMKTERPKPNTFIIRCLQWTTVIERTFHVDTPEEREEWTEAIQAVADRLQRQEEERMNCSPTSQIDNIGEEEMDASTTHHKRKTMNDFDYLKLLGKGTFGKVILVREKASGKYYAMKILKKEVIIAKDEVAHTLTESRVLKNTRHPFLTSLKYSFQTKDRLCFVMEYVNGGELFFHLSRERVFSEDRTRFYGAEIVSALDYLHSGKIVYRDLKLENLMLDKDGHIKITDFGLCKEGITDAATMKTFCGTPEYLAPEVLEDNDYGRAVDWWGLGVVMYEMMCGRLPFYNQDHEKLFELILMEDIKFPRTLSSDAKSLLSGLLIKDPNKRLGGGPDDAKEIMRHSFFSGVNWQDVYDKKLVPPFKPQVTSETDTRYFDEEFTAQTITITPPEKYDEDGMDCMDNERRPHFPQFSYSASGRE

Consider `C=CC1CN2CCC1CC2[C@@H](NC(=O)Nc1ccc(C(F)(F)F)cc1)c1ccnc2ccc(OC)cc12` (some centres undefined), for which the IC50 is 1.08 µM in test [1]; 0.79 µM in [2]; 0.42 µM in test [3]; 0.59 µM in [4]; 0.62 µM in test [5]; 0.6 µM in [6].
On to `CCN(CC)CCCC(C)Nc1ccnc2cc(Cl)ccc12` (centres undefined) [CHLOROQUINE], for which the IC50 in test [1], in test [2], in test [3], in test [4], in test [5] and in test [6] was > 10 µM each time.
As to `C=CC1CN2CCC1C[C@H]2[C@@H](NC(=O)Nc1ccccc1C(F)(F)F)c1ccnc2ccc(OC)cc12` (some centres undefined), the IC50 is > 10 µM in test [1]; > 10 µM in test [2]; > 10 µM in test [3]; 3.05 µM in test [4]; 5.72 µM in test [5]; 6.51 µM in test [6].
For the compound `C=CC1CN2CCC1CC2[C@@H](NC(=O)Nc1cc(C(F)(F)F)cc(C(F)(F)F)c1)c1ccnc2ccc(OC)cc12` (some centres undefined), the outcome in [7], in test [11], in test [13], in test [16], in [18] and in test [21] was Active. Moreover, the outcome in test [28], in [30], in test [31] and in test [33] was Active. Further, the result in test [8] and in [15] was inactive. Besides, the Activity entry is “Tde” in test [9]; “Tde” in test [10]; “Dose-dependent effect” in [12]; “Tde” in [14]; “Dose-dependent effect” in [17]; “Dose-dependent effect” in test [19]. For the same compound, the Activity result is “Tde” in test [20]; “Dose-dependent effect” in test [22]; “Dose-dependent effect” in [23]; “Dose-dependent effect” in test [24]; “Dose-dependent effect” in [25]; “Tde” in test [26]. Besides, the Activity entry was “Dose-dependent effect” in [29] and “Tde” in test [32]. For the same compound, the IC50 in test [1] was 0.69 µM; in test [2] it was 0.72 µM; in test [3], 0.27 µM; in [4], 0.27 µM; in [5], 0.23 µM; in [6] it was 0.13 µM. Besides, the inhibition result in test [27] was “Active”.
As for `C=CC1CN2CCC1C[C@H]2[C@@H](NC(=O)Nc1cc(C)cc(C)c1)c1ccnc2ccc(OC)cc12` (some centres undefined), the IC50 in test [1] is 5.16 µM; in test [2], > 10 µM; in test [3] it was 7.31 µM; in test [4] it was 5.12 µM; in test [5], > 10 µM; in test [6], > 10 µM.
Turning to `C=CC1CN2CCC1CC2[C@H](NC(=O)Nc1cc(C(F)(F)F)cc(C(F)(F)F)c1)c1ccnc2ccc(OC)cc12` (some centres undefined), the IC50 in [1] amounted to 0.69 µM; in test [2], 0.92 µM; in test [3] it was 0.6 µM; in test [4], 0.38 µM; in test [5], 0.42 µM; in test [6], 0.62 µM.
Regarding `C=CC1CN2CCC1C[C@H]2[C@@H](NC(=O)Nc1cc(OC)cc(OC)c1)c1ccnc2ccc(OC)cc12` (some centres undefined), the IC50 is 5.09 µM in test [1]; 8.46 µM in [2]; 5.87 µM in test [3]; 3.53 µM in test [4]; 2.26 µM in test [5]; 3.81 µM in test [6].
For `C=CC1CN2CCC1C[C@H]2[C@@H](NC(=O)Nc1cccc(C(F)(F)F)c1)c1ccnc2ccc(OC)cc12` (some centres undefined), the IC50 in [1] is > 10 µM; in test [2], > 10 µM; in test [3], 6.42 µM; in test [4] it was 1.62 µM; in [5], 1.48 µM; in [6] it was 6.1 µM.
On to `C=CC1CN2CCC1CC2[C@@H](NC(=S)Nc1cc(C(F)(F)F)cc(C(F)(F)F)c1)c1ccnc2ccc(OC)cc12` (some centres undefined), for which the IC50 in test [1] worked out at 0.77 µM; in test [2] it was 0.78 µM; in test [3], 0.34 µM; in [4], 0.29 µM; in test [5] it was 0.37 µM; in test [6], 0.28 µM.
`C=CC1CN2CCC1C[C@H]2[C@@H](NC(=O)Nc1ccc(OC)cc1)c1ccnc2ccc(OC)cc12` (some centres undefined): the IC50 in [1] was 9.55 µM; in test [2] it was > 10 µM; in [3] it was > 10 µM; in test [4], 9.92 µM; in test [5] it was 5.85 µM; in test [6], 6.29 µM.
With `C=CC1CN2CCC1CC2[C@@H](NC(=O)Nc1ccc(F)cc1)c1ccnc2ccc(OC)cc12` (some centres undefined), the IC50 in test [1] was 5.88 µM; in test [2], 3.9 µM; in [3], > 10 µM; in test [4], 2 µM; in [5], 2.81 µM; in [6] it was 3.65 µM.
Regarding `C=CC1CN2CCC1CC2[C@@H](NC(=O)Nc1ccccc1)c1ccnc2ccc(OC)cc12` (some centres undefined), the half-inhibitory concentration (IC50) in test [1] was 8.67 µM; in test [2], > 10 µM; in [3] it was > 10 µM; in test [4] it was > 10 µM; in test [5], > 10 µM; in test [6], 4.02 µM.
